Experimental findings from patent publication US20110212943A1, “NOVEL BRIDGED CYCLIC COMPOUNDS AS HISTONE DEACETYLASE INHIBITORS” (ORCHID RESEARCH LABORATORIES LIMITED, priority 2008, published 2011) are described below.

Molecules are shown by their SMILES.

Assay [1] addresses HDAC (Mouse Liver Extract). Description: Histone Deacetylase (HDAC) Inhibition Assay using Boc-Lys (Ac)-AMC Substrate. The format is biochemical. The conditions noted are these: Mouse liver enzyme, 30 minutes at 37° C. On the procedure:
Histone Deacetylase (HDAC) Inhibition Assay using Boc-Lys (Ac)-AMC Substrate: Inhibition of HDAC has been implicated to modulate transcription and to induce apoptosis or differentiation in cancer cells. The fluorometric assay provides a fast and fluorescence based method that eliminates radioactivity, extractions or chromatography, as used in traditional assays. The assay is based on two steps. First, the HDAC fluorometric substrate, which comprises an acetylated lysine side chain, is incubated with a sample containing HDAC activity (Mouse Liver Extract). Deacetylation of the substrate sensitizes the substrate, in the second step; treatment with the Trypsin stop solution produces a fluorophore that can be easily analyzed using fluorescence plate reader.
Assay was done in 96-well black microplate and total volume of the assay was 100 μL. Mouse liver enzyme (10 mg/mL) was diluted 1:6 with HDAC buffer. Enzyme cocktail was made of 10 μL of diluted enzyme and 30 μL of HDAC buffer. 40 μL of enzyme cocktail followed by 10 μL of test compound (1 μM and 10 μM) or buffer (control) was added to each well. The plate was pre-incubated at 37° C. for 5 minutes. The HDAC reaction was started by adding 50 μL of HDAC substrate Boc-Lys (Ac)-AMC (Bachem AG, Switzerland). The plate was incubated at 37° C. for 30 minutes. The reaction was stopped by adding 100 μL of Trypsin stop solution and incubating at 37° C. for 15-30 minutes. Measuring the fluorescence at excitation wavelength of 360 nm and emission wavelength of 460 nm monitored the release of AMC. Buffer alone and substrate alone served as blank.

Assay [2] concerns HCT 116 (colon), NCIH460 (lung) and U251 (glioma) cell lines. In words: Anti-cancer screen (MTT growth inhibition). The conditions noted are these: mean over HCT 116, NCIH460 and U251 cell lines, 48 hours of incubation. Type of assay: cell-based. As for the experimental part:
Experimental drugs were screened for anti-cancer activity in three cell lines using five concentrations for each compound. The cell lines—HCT 116 (colon), NCIH460 (lung) and U251 (glioma) were maintained in DMEM containing 10% fetal bovine serum. 96-well microtiter plates are inoculated with cells in 100 μL of cell suspension (5×10^4 cells/mL) for 24 hours at 37° C., 5% CO2, 95% air and 100% relative humidity. A separate plate with these cell lines is also inoculated to determine cell viability before the addition of the compounds (T0)
Following 24-hour incubation, test compounds were added to the 96 well plates. Each plate contains one of the above cell lines and the following samples in triplicate: five different dilutions (0.01, 0.1, 1, 10 and 100 μM) of four test compounds, appropriate dilutions of a cytotoxic standard and growth medium (untreated) wells. Test compounds were dissolved in DMSO to prepare 20 mM stock solutions on the day of drug addition and serial dilutions were carried out in complete growth medium at 2× strength such that 100 μL added to wells gave final concentrations (0.01, 0.1, 1, 10 and 100 μM) in the well. SAHA was used as standard drug in these experiments.
For T0 measurement, 24 hours after seeding the cells, 20 μL of 3-(4,5-dimethyl-2-thiazolyl)-2,5-diphenyl-2H-tetrazolium (MIT) solution per well was added to the ‘T0’ plate and incubated for 3 hours at 37° C. in a CO2 incubator. The plate containing cells and test compounds was treated similarly after 48 hours of incubation. After 3 hours of MTT addition, well contents were aspirated carefully followed by addition of 150 μL DMSO per well. Plates were agitated to ensure dissolution of the formazan crystals in DMSO and absorbance was read at 570 nm (A570).
Percent growth (PG) is calculated relative to the control and zero measurement wells (T0) as follows:
(Mosmann T. Rapid colorimetric assay for cellular growth and survival: application to proliferation and cytotoxicity assays. (J. Immunol. Methods. 1983, 65 (1-2), 55-63; Anne Monks et al). Feasibility of high-flux anticancer drug screen using a diverse panel of cultured human tumor cell lines”. (JNCI, Vol. 83, No. 11, 1991, 757-766).

In turn, `O=C(/C=C/c1ccc(CNC23CC4CC(CC(C4)C2)C3)cc1)NO` [Example 1, (2E)-3-{4-[(adamant-1-ylamino)methyl]phenyl}-N-hydroxyacrylamide] had an IC50 in assay [1] of 70 nM. This compound returned a concentration for 50% growth inhibition (GI50) in assay [2] of 1800 nM.

With `O=C(/C=C/c1ccc(CNC23CC4CC(CC(O)(C4)C2)C3)cc1)NO` [Example 2, (2E)-N-hydroxy-3-(4-{[(3-hydroxyadamant-1-yl)amino]methyl}phenyl)acrylamide], the IC50 in assay [1] is 250 nM. The compound also showed a GI50 in assay [2] of 5100 nM.

`COC12CC3CC(CC(NCc4ccc(/C=C/C(=O)NO)cc4)(C3)C1)C2` [Example 3, (2E)-N-hydroxy-3-(4-{[(3-methoxyadamant-1-yl)amino]methyl}phenyl)acrylamide] showed an IC50 in assay [1] of 260 nM. Besides, growth in assay [2] was halved (GI50) at 5200 nM.

Turning to `CCOC12CC3CC(CC(NCc4ccc(/C=C/C(=O)NO)cc4)(C3)C1)C2` [Example 4, (2E)-N-hydroxy-3-(4-{[(3-ethoxyadamant-1-yl)amino]methyl}phenyl)acrylamide], 460 nM corresponded to half-maximal inhibition in assay [1] (IC50). This compound also returned a GI50 in assay [2] of 3300 nM.

Take `CC12CC3CC(C)(C1)CC(NCc1ccc(/C=C/C(=O)NO)cc1)(C3)C2` [Example 5, (2E)-3-(4-{[(3,5-dimethyladamant-1-yl)amino]methyl}phenyl)-N-hydroxyacrylamide]: the IC50 in assay [1] is 30 nM. In assay [2], the GI50 is 1100 nM.

In turn, `O=C(/C=C/c1ccc(CN2CC3CC4CC(C3)CC2C4)cc1)NO` [Example 6, (2E)-3-[4-(4-azatricyclo[4.3.1.1^3,8]undec-4-ylmethyl)phenyl]-N-hydroxyacrylamide] yielded a half-maximal inhibitory concentration (IC50) in assay [1] of 110 nM. The same compound yielded a concentration for 50% growth inhibition (GI50) in assay [2] of 2800 nM.

As for `O=C(/C=C/c1ccc(CNC23CC4CC(CC(Cl)(C4)C2)C3)cc1)NO` [Example 7, (2E)-3-(4-{[(3-chloroadamant-1-yl)amino]methyl}phenyl)-N-hydroxyacrylamide], the IC50 in assay [1] stood at 40 nM. The same compound returned a GI50 in assay [2] of 9700 nM.

`O=C(/C=C/c1ccc(CNC23CC4CC(C2)CC(c2ccccc2)(C4)C3)cc1)NO` [Example 8, (2E)-3-(4-{[(3-phenyladamant-1-yl)amino]methyl}phenyl)-N-hydroxyacrylamide] registered an IC50 in assay [1] of 440 nM. The same compound showed a concentration for 50% growth inhibition (GI50) in assay [2] of 3500 nM.

On to `O=C(/C=C/c1ccc(CNC23CC4CC(CC(CO)(C4)C2)C3)cc1)NO` [Example 9, (2E)-3-(4-{[(3-hydroxymethyladamant-1-yl)amino]methyl}phenyl)-N-hydroxy acrylamide], for which the 50% inhibitory concentration (IC50) in assay [1] came to 240 nM. This compound yielded a concentration for 50% growth inhibition (GI50) in assay [2] of 6100 nM.

With `O=C(/C=C/c1ccc(CNCC23CC4CC(CC(O)(C4)C2)C3)cc1)NO` [Example 11, (2E)-N-hydroxy-3-[4-({[(3-hydroxyadamant-1-yl)methyl]amino}methyl)phenyl]acrylamide], in assay [1], 9.06 nM corresponded to half-maximal inhibition (IC50). Moreover, in assay [2], the GI50 worked out at 100 nM.

Regarding `Nc1ccccc1NC(=O)/C=C/c1ccc(CNC23CC4CC(CC(C4)C2)C3)cc1` [Example 12, (2E)-N-(2-aminophenyl)-3-{4-[(adamant-1-ylamino)methyl]phenyl}acrylamide], in assay [1], 4300 nM corresponded to half-maximal inhibition (IC50). In assay [2], this compound returned a GI50 of 7000 nM.

`Nc1ccccc1NC(=O)/C=C/c1ccc(CNC23CC4CC(CC(O)(C4)C2)C3)cc1` [Example 13, (2E)-N-(2-aminophenyl)-3-{4-[(3-hydroxyadamant-1-ylamino)methyl]phenyl}acrylamide] showed an IC50 in assay [1] of 5400 nM. In assay [2], this compound registered a 50% growth inhibitory concentration (GI50) of 52000 nM.

On to `O=C(/C=C/c1ccc(CNC2C3CC4CC(C3)CC2C4)cc1)NO` (stereo not shown) [Example 15, (2E)-3-{4-[(adamant-2-ylamino)methyl]phenyl}-N-hydroxyacrylamide], for which half-maximal inhibition in assay [1] (IC50) was put at 60 nM. Besides, in assay [2], it took 150 nM to inhibit growth by half (GI50).

On to `O=C(/C=C/c1ccc(CNC2C3CC4CC2CC(O)(C4)C3)cc1)NO` (stereo not shown) [Example 16, (2E)-N-hydroxy-3-(4-{[(5-hydroxyadamant-2-yl)amino]methyl}phenyl)acrylamide], for which, in assay [1], 160 nM corresponded to half-maximal inhibition (IC50). In assay [2], this compound displayed a GI50 of 400 nM.

In the case of `O=C(C=Cc1ccc(CNCCC2C3CC4CC(C3)CC2C4)cc1)NO` (stereo not shown) [Example 17, (2E)-N-hydroxy-3-[4-({[adamant-2-yl)ethyl]amino}methyl)phenyl]acrylamide], the half-inhibitory concentration (IC50) in assay [1] was 0.28 nM. The compound further came in with a 50% growth inhibitory concentration (GI50) in assay [2] of 290 nM.

In the case of `O=C(/C=C/c1ccc(CNCCC2C3CC4CC2CC(O)(C4)C3)cc1)NO` (stereo not shown) [Example 19, (2E)-N-hydroxy-3-[4-({[(5-hydroxyadamant-2-yl)ethyl]amino}methyl)phenyl]acrylamide], in assay [1], the IC50 came out at 28 nM. In addition, halving of growth in assay [2] (GI50) required 220 nM.

In assay [1], `O=C(/C=C/c1ccc(CNC(=O)CC2C3CC4CC(C3)CC2C4)cc1)NO` (stereo not shown) [Example 20, (2E)-N-hydroxy-3-(4-{[(adamantyl-2-ylacetyl)amino]methyl}phenyl)acrylamide] displayed a half-inhibitory concentration (IC50) of 8 nM. This compound also gave a GI50 in assay [2] of 1200 nM.

In turn, `O=C(C=C1C2CC3CC(C2)CC1C3)NCc1ccc(/C=C/C(=O)NO)cc1` [Example 21, (2E)-N-hydroxy-3-(4-{[(tricyclo[3.3.1.1^3,7]dec-2-ylideneacetyl)amino]methyl}phenyl)acrylamide] came in with an IC50 in assay [1] of 43 nM. In assay [2], this compound showed a GI50 of 2100 nM.

In turn, `O=C(/C=C/c1ccc(CNC(=O)CC23CC4CC(CC(C4)C2)C3)cc1)NO` [Example 23, (2E)-3-(4-{[(adamant-1-ylacetyl)amino]methyl}phenyl)-N-hydroxyacrylamide] yielded an IC50 in assay [1] of 1.8 nM. In assay [2], this compound gave a GI50 of 180 nM.

Turning to `O=C(/C=C/c1ccc(CNC(=O)CC2C3CC4CC2CC(O)(C4)C3)cc1)NO` (stereo not shown) [Example 24, (2E)-N-hydroxy-3-[4-({[(5-hydroxyadamant-2-yl)acetyl]amino}methyl)phenyl]acrylamide], in assay [1], the midpoint of inhibition, the IC50, lay at 110 nM. Further, the concentration for 50% growth inhibition (GI50) in assay [2] amounted to 4200 nM.

`O=C(/C=C/c1ccc(CNC(=O)C23CC4CC(CC(C4)C2)C3)cc1)NO` [Example 25, N-{4-[(1E)-3-(hydroxyamino)-3-oxoprop-1-en-1-yl]benzyl}adamantane-1-carboxamide] returned a 50% inhibitory concentration (IC50) in assay [1] of 67 nM. The compound further yielded a 50% growth inhibitory concentration (GI50) in assay [2] of 100 nM.

`O=C(/C=C/c1ccc(CNCC(=O)NC23CC4CC(CC(C4)C2)C3)cc1)NO` [Example 28, (2E)-3-[4-({[2-(adamant-1-ylamino)-2-oxoethyl]amino}methyl)phenyl]-N-hydroxyacrylamide] yielded a half-inhibitory concentration (IC50) in assay [1] of 80 nM. This compound also had a 50% growth inhibitory concentration (GI50) in assay [2] of 4400 nM.

The compound `O=C(C=Cc1ccc(CNCCNC(=O)C23CC4CC(CC(C4)C2)C3)cc1)NO` [Example 29, N-[2-({4-[(1E)-3-(hydroxyamino)-3-oxoprop-1-en-1-yl]benzyl}amino)ethyl]adamantine-1-carboxamide] showed an IC50 in assay [1] of 10.4 nM. Besides, halving of growth in assay [2] (GI50) required 200 nM.

In assay [1], `O=C(/C=C/c1ccc(CNCC23CC4CC(CC2C4)C3)cc1)NO` [Example 32, (2E)-N-hydroxy-3-(4-{[(tricyclo[3.3.1.0^3,7]non-3-ylmethyl)amino]methyl}phenyl)acrylamide] showed a half-inhibitory concentration (IC50) of 0.385 nM. In assay [2], this compound displayed a 50% growth inhibitory concentration (GI50) of 10 nM.

Take `O=C(CCCCCCC(=O)Nc1ccccc1)NO` [SAHA, suberoylanilide hydroxamic acid, reference compound]: the concentration for 50% growth inhibition (GI50) in assay [2] was determined as 1260 nM.
